Article PMC4530474, “Carbohydrate scaffolds as glycosyltransferase inhibitors with in vivo antibacterial activity” (Nature Communications, 2015)
In brackets after ≈: the same amount, converted by molar mass. Several values for one entry are separate records, joined by “and”; a condition that tells them apart may be missing. Identical values can stand only once. Entries after “also recorded” stand apart in the source; their conditions may differ.

Experiments:
[1] = system: S. aureus MSSA, ATCC 25923; experiment: MIC determination (broth microdilution); details: Staphylococcus aureus
Description: (§1) Bacteria were cultured in Brain–Heart Infusion (Bacto laboratories, Cat. no. CM1135B) at 37 °C overnight. […] MICs were determined visually as the lowest concentration showing no visible growth.

[2] = system: S. aureus MRSA, ATCC 43300; experiment: MIC determination (broth microdilution); details: Staphylococcus aureus
Description: as §1

S. aureus NRS 17—GISA = experiment: MIC determination (broth microdilution); details: Staphylococcus aureus, NRS17
Description: as §1

S. aureus NRS 1—GISA = experiment: MIC determination (broth microdilution); details: Staphylococcus aureus, NRS1
Description: as §1

S. aureus VRS 1 = experiment: MIC determination (broth microdilution); details: Staphylococcus aureus, VRS1
Description: as §1

[3] = system: S. aureus mMRSA, DRSA, ci; experiment: MIC determination (broth microdilution); details: Staphylococcus aureus
Description: as §1

[4] = system: E. faecium VanA, ATCC 51559; experiment: MIC determination (broth microdilution); details: Enterococcus faecium, ATCC51559
Description: as §1

[5] = system: S. pneumoniae MDR, ATCC 700677; experiment: MIC determination (broth microdilution); details: Streptococcus pneumoniae, ATCC700677
Description: as §1

[6] = system: bacterial PG biosynthesis in crude B. megaterium membrane; experiment: In vitro PG biosynthesis, [14C]UDP-GlcNAc incorporation into lipid II and PG, TLC; details: for Accumulation of lipid II / Inhibit of PG: vs no antibiotic
From the text: To elucidate the mode of action of the inhibitors, we conducted various GT enzyme inhibition assays. […] This assay monitors [^14C]UDP-GlcNAc incorporation into lipid II and mature PG, in the presence of different concentrations of antibiotics[39]. Owing to the sequential nature of the glycosyltransfer and transpeptidation, it is not possible to determine at which step PG biosynthesis is blocked in this assay. The low concentration of lipid II can be detected by thin-layer chromatography (TLC) separation and subsequent phosphorimaging of pre-solubilized membranes, which was incubated with the cytoplasmic PG precursors UDP-MurNAc-pentapeptide and UDP-[^14C]GlcNAc[41][42].
The cell-free particulate fraction of B. megaterium KM (ATCC13632), capable of catalysing the polymerization of PG from UPD-linked precursors was performed as described previously[61]. B. megaterium was grown in standard medium, harvested and washed with Tris-buffer by centrifugation. Resuspended bacteria were subjected to three freeze/thaw cycles (5 min dry ice, followed by 10 min at RT), homogenized by the glass homogenizer and centrifuged all at 4 °C, leaving most of the cell wall in the pellet. […] After separation, plates were dried, exposed to phosphorimaging screen (1 week), scanned by Typhoon 8600 calculating the integrated density value of each band on silica gel. Changes of PG or lipid II were calculated as a percentage from negative control (for more details see Supplementary Methods).
Inhibition of Lipid II and peptidoglycan biosynthesis
The cell-free particulate fraction of Bacillus megaterium KM (ATCC13632), capable of catalysing the
polymerisation of PG from UPD-linked precursors was performed as described previously 19 with some
modification. Bacillus megaterium was grown in the medium containing tryptone (Difco-Bacto), 1%
the pH to 7.2. Bacteria were harvested when the density had reached to 0.4 mg dry weight mL-1 and
washed in the buffer 0.05 M Tris-HCl (pH 7.8) containing 10 mM MgCl2 by centrifugation at 6,000 x g
for 10 min at 4 °C. All subsequent manipulations were carried out as close to 0 °C as possible.
bacteria were resuspended in the same buffer at a density of 50 mg dry weight ml-1. Then the bacteria
were subjected to three freeze/thaw cycles (dry ice for 5 min followed by RT for 10 min).
freeze/thaw cycles, bacteria were homogenized by using the glass homogenizer at 4 °C (10 min × 2).
The broken cell suspension was centrifuged at 6,000 x g for 10 min at 4 °C. The supernatant which
contained the unbroken cells and the majority of the cell walls was kept for further centrifugation.

TG = details: at 0.1 μg ml^−1; no reference given; cited from earlier work
S.aureus SG511 = details: no reference given; cited from earlier work
staphylococci = system: staphylococci; design: method as in earlier work; details: cited from earlier work
enterococci = system: enterococci; design: method as in earlier work; details: cited from earlier work
MR S. aureus, VRE = system: MR S. aureus, VRE; design: method as in PMID 10464005; details: cited from earlier work
[7] = design: method as in earlier work; details: cited from earlier work
Gram-positive bacteria = experiment: MIC of disaccharide library; assay type: cell-based
From the text: In the second stage, we used the disaccharide structure–activity relationship information to design more synthetically feasible and smaller monosaccharide molecules. A versatile solid-phase method was developed to rapidly synthesize the representatives of three different core chemotypes M1 to M3, starting from a single monosaccharide building block, that is, 1,5-anhydro-galactitol (see Fig. 3). Chemotype M1 explored the option of using only two of the hydrophobic elements, whereas the other two, M2 and M3, used a benzimidazole moiety as the third hydrophobic group (Fig. 3).

S. aureus = experiment: MIC of disaccharide and monosaccharide libraries (Figures 2, 3); details: Staphylococcus aureus
Description: as §1

S. aureus Newbould 305 = experiment: MIC determination (Mueller-Hinton agar dilution); assay type: cell-based; details: Staphylococcus aureus
From the text: guidelines 23. […] In addition
The animal experiments were
To evaluate the dose-response

Human red blood cells = details: male, 1 h
Description: Human male red blood cells were isolated from fresh whole blood sample and washed with phosphate
buffered saline (PBS) 3 times. Red blood cells were diluted 1/200 with PBS for the haemolysis assay.
Each compound was assayed at 4 different concentrations in quadruplicate. Control items (100 μM
tamoxifen and 1% triton X100) were also assayed in quadruplicate. Background was determined with
1% DMF. The assay was performed for 1 h at 37 °C. The samples were then centrifuged for 10 min at
4°C at 1000 × g, the supernatant was recovered and absorption was measured at 415 nm. Results are
expressed as the % haemolysis compared to 1% triton X100 after background was subtracted, and
fitting dose response curve with Prism (GraphPad) to extract HC50 values.

[8] = microsomes
Description: In vitro metabolic stability studies
(§2) Compounds (1 μM) were incubated at 37 °C with human or mouse liver microsomes. The reaction was
(§3) initiated by the addition of an NADPH-regenerating system and quenched at various time points over
(§4) the incubation period by the addition of acetonitrile. Additional samples co-activated by NADP and
(§5) UDPGA (the co-factor for glucuronidation), were included in the incubation for the qualitative
(§6) assessment of the potential for glucuronide formation. The relative loss of parent compound and
(§7) formation of metabolic products was determined by LC/MS using the Q-TOF instrument. The studies
(§8) were conducted by a contract research organization (Centre for Drug Candidate Organization, Monash
University, Melbourne, Australia).
In vivo efficacy and PK studies
(§9) The in vivo pharmacokinetics of the compounds were studies in overnight-fasted male Sprague Dawley
(§10) Rats had access to water ad libitum throughout the pre- and post-dose
(§11) sampling period, and access to food was re-instated 4 hours post-dose. Compounds were
(§12) administrated IV as a 10 minute constant rate infusion (1.0 mL per rat, n=2 rats). Samples of arterial
(§13) Arterial blood was collected directly into
(§14) borosilicate vials (at 4 °C) containing heparin, Complete (a protease inhibitor cocktail), potassium
(§15) fluoride and EDTA to minimize potential for ex vivo degradation. Once collected, blood samples were […]
determined by LCMS (LLQ 0.0014 M). […]

[9] = mouse liver microsomes, 1 μM, 37 °C
Description: In vitro metabolic stability studies
as §2, §3, §4, §5, §6, §7, §8
University, Melbourne, Australia).
In vivo efficacy and PK studies
as §9, §10, §11, §12, §13, §14, §15
determined by LCMS (LLQ 0.0014 M). […]

[10] = rat, in vivo, iv
Description: In vitro metabolic stability studies
as §2, §3, §4, §5, §6, §7, §8
University, Melbourne, Australia).
In vivo efficacy and PK studies
as §9, §10, §11, §12, §13, §14
(§16) fluoride and EDTA to minimize potential for ex vivo degradation. Once collected, blood samples were
(§17) centrifuged, supernatant plasma was removed, and plasma concentration of compounds were
(§18) determined by LCMS (LLQ 0.0014 M). The studies were conducted by a contract research organization
(§19) (Centre for Drug Candidate Organization, Monash University, Melbourne, Australia).

in vivo [11] = details: male, Sprague Dawley, rat, iv, 3.5 mg/kg
Description: In vitro metabolic stability studies
as §2, §3, §4, §5, §6, §7, §8
University, Melbourne, Australia).
In vivo efficacy and PK studies
as §9, §10, §11, §12, §13, §14, §16, §17, §18, §19

in vivo [12] = details: male, CD-1, mouse, ip
Description: In vivo Maximum Tolerated Dose
(§20) Compound dissolved in 0.05% Tween 80/0.9% NaCl were each administered IP at doses of 20, 60 and
(§21) 100 mg kg-1 to groups of 2 CD-1 (Crl.) derived male mice weighing 22 ± 2 g. The animals were observed
(§22) for presence of acute toxic symptoms (mortality, convulsions, tremors, muscle relaxation, sedation,
(§23) etc.) and autonomic effects (diarrhea, salivation, lacrimation, vasodilation, piloerection, etc.) during
the first 30 min post-dosing.
(§24) For the IV studies, compounds were dissolved in 10% DMSO/0.1 M HCl/1% Tween 80/5% Glucose were
(§25) prepared at a dose of 4 mg kg-1 and were administered intravenously once to groups of 3 CD-1 (Crl.)
(§26) derived male mice weighing 22 ± 2 g, and monitored and analyzed similar to the IP study during the
(§27) first 5 min post dosing (IV). In addition, Group 3 and Group 5 were administered intravenously with
(§28) compounds at 4 mg kg-1 for 2 times (T=0 and T=170 minutes) and the autonomic signs and neurological
(§29) changes were observed during the first 5 min after the first and the second dose. Mortality was also

S. aureus (Smith) = experiment: Mouse model of septicemia
Description: In vivo Septicaemia mouse model
Groups of 10 male CD-1 (Crl.) derived mice weighing 22 ± 2 g were used. The mice were inoculated
of brain-heart infusion broth containing 5% mucin. Compounds were dissolved in 0.05% Tween
80/0.9% NaCl. Vehicle and compounds at 50 and 100 mg kg-1 were each administered intraperitoneally
10 and/or 180 minutes after S. aureus (Smith) challenge. Ampicillin (0.1 mg kg-1, IP, as positive control
agent) was administered to test animals at 1 h after the inoculation. Mortality was monitored once
For the corresponding IV studies compounds at 4 mg kg-1 were dissolved in 10% DMSO/0.1 M HCl/1%
Tween 80/5% glucose, and compounds were each administered intravenously at 10 min and/or 180
min after S. aureus (Smith) challenge.

[13] = In vivo maximum tolerated dose, i.p.; details: mice
Description: In vivo Maximum Tolerated Dose
as §20, §21, §22, §23
the first 30 min post-dosing.
as §24, §25, §26, §27, §28, §29

E. faecium ATCC 35667 = experiment: MIC determination (broth microdilution); details: Enterococcus faecium, ATCC35667
Description: as §1

E. faecalis ATCC 29212 = experiment: MIC determination (broth microdilution); details: Enterococcus faecalis, ATCC29212
Description: as §1

E. faecalis VanA, ci = experiment: MIC determination (broth microdilution); details: Enterococcus faecalis
Description: as §1

E. coli ATCC 25922 = experiment: MIC determination (broth microdilution); details: Escherichia coli, ATCC25922
Description: as §1

[14] = system: S. aureus (Newbould 305, ATCC 29740); experiment: Mouse mammary gland infection (mastitis) model
Description: Each compound was instilled at different doses into the teat canal of both contralateral glands from the fourth mammary gland pair of lactating mice at 4 h after bacterial inoculation.
The procedure for mouse mammary gland infection has been recently described[64]. CD-1 lactating mice were utilized 12–14 days after giving birth, with pups weaned 1–2 h before bacterial inoculation of the mammary glands. Inoculation of both left (L4) and right (R4) glands of the fourth abdominal mammary gland pair of anesthetized mice with 150 c.f.u. of S. aureus, was done using 32-gauge syringes (blunt needle). The antimicrobial formulation was instilled into the mammary gland of anesthetized mice at 4 h after bacterial inoculation, followed by i.p. administration of postoperative analgesic Buprecare. […] Bacterial c.f.u. counts were obtained after quantification of serial logarithmic dilutions of mammary gland homogenates on TSA. The detection limit (DL) was 1.7 log10 c.f.u. g^−1 gland weight (for more details see Supplementary Methods).
The actual colony forming units (CFU) of the inocula was confirmed by overnight culture of a serial logarithmic dilution on tryptic soy agar (TSA; Oxoid Limited) plates.

S.aureus MSSA = experiment: MIC, chemotype M3 library (Supplementary Table 1); details: Staphylococcus aureus
Description: as §1

S.aureus MRSA = experiment: MIC, chemotype M3 library (Supplementary Table 1); details: Staphylococcus aureus
Description: as §1

E. faecium = experiment: MIC, chemotype M3 library (Supplementary Table 1); details: Enterococcus faecium
Description: as §1

E. faecium VanB = experiment: MIC, chemotype M3 library (Supplementary Table 1); details: Enterococcus faecium
Description: as §1

E. faecalis = experiment: MIC, chemotype M3 library (Supplementary Table 1); details: Enterococcus faecalis
Description: as §1

E.coli = experiment: MIC, chemotype M3 library (Supplementary Table 1); details: Escherichia coli
Description: as §1

PBP1 from C. difficile = experiment: Glycosyltransferase activity by HPLC, NBD-lipid II; details: 200 μg ml^−1, NBD-lipid II
Description: (§30) We then monitored the transformation of fluorescent NBD-lipid II by two different GT enzymes, PBP1 from Clostridium difficile and MGT from S. aureus.
(§31) 25 °C. The reaction was initiated by addition of glycosyltransferease (2.5 µg mL-1) and terminated by
(§32) The reaction mixtures were then analysed by a
(§33) HPLC system (Hitachi) equipped with an anion-exchange column (5 μm, 4.6 × 250 mm, SAX1, Supelco
(§34) Co.) using a linear gradient of NH4OAc/MeOH (20 mM to 1 M) at a flow rate of 1 mL min-1. The signals
(§35) were detected with a fluorometer at λex = 355 nm and λem = 460 nm.

MGT from S. aureus = MGT from S. aureus (Staphylococcus aureus, UniProt Q99T05); experiment: Glycosyltransferase activity by HPLC, NBD-lipid II; details: 200 μg ml^−1, NBD-lipid II
Sequence of MGT from S. aureus (Q99T05 whole entry): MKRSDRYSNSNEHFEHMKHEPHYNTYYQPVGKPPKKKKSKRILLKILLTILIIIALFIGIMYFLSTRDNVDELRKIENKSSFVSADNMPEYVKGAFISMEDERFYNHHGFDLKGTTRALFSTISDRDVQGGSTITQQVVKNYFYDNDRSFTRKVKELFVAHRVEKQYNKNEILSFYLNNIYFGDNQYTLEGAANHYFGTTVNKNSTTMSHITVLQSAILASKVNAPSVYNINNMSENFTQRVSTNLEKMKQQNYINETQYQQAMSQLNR
Description: as §30, §31, §32, §33, §34, §35

[15] = In vivo pharmacokinetics, i.v. administration to male rats; details: Sprague Dawley, rat, iv, 3.5 mg kg^-1
Description: In vitro metabolic stability studies
as §2, §3, §4, §5, §6, §7, §8
University, Melbourne, Australia).
In vivo efficacy and PK studies
as §9, §10, §11, §12, §13, §14, §16, §17, §18, §19

S. aureus MGT = S. aureus MGT (Staphylococcus aureus, UniProt Q99T05); experiment: Inhibition of glycosyltransferase, continuous fluorescence assay with dansyl-Lys lipid II
Sequence of S. aureus MGT (Q99T05 whole entry): as above
From the text: Confirmative dose–response assays were subsequently conducted with continuous fluorescent activity assay using a dansyl-labelled, lysine-lipid II substrate[47]. […] The data were fitted to a simple saturation model of inhibitor binding to a single site, from which IC50 values were extracted.

[16] = mouse mastitis, intramammary, 4 h after inoculation

## CN[C@H](CC(C)C)C(=O)N[C@H]1C(=O)N[C@@H](CC(N)=O)C(=O)N[C@H]2C(=O)N[C@H]3C(=O)N[C@H](C(=O)N[C@H](C(=O)O)c4cc(O)cc(O)c4-c4cc3ccc4O)[C@H](O)c3ccc(c(Cl)c3)Oc3cc2cc(c3O[C@@H]2O[C@H](CO)[C@@H](O)[C@H](O)[C@H]2O[C@H]2C[C@](C)(N)[C@H](O)[C@H](C)O2)Oc2ccc(cc2Cl)[C@H]1O [Vancomycin, reference compound]
[1]
  MIC: 1 µg/mL (≈ 0.69 µM)
[2]
  MIC: 1 µg/mL (≈ 0.69 µM)
S. aureus NRS 17—GISA
  MIC: 8 µg/mL (≈ 5.52 µM)
S. aureus NRS 1—GISA
  MIC: 4 µg/mL (≈ 2.76 µM)
S. aureus VRS 1
  MIC: > 64 µg/mL
[3]
  MIC: 4 µg/mL (≈ 2.76 µM)
[4]
  MIC: > 64 µg/mL
[5]
  MIC: 2 µg/mL (≈ 1.38 µM)
[6]; 10 μg ml-1, 3 h
  Accumulation of lipid II: 36.6 ± 6.2%
  Inhibit of PG: 12.8 ± 2.0%
[6]; 30 μg ml-1, 3 h
  Accumulation of lipid II: 106.8 ± 33.4%
  Inhibit of PG: 15.0 ± 3.5%
[6]; 100 μg ml-1, 3 h
  Accumulation of lipid II: 140.6 ± 30.8%
  Inhibit of PG: 21.3 ± 1.4%
[6]; 200 μg ml-1, 3 h
  Accumulation of lipid II: 151.5 ± 23.1%
  Inhibit of PG: 36.0 ± 2.8%

## CC(=O)N[C@H]1[C@H](O[C@H]2[C@@H](OP(=O)(O)OC[C@@H](OCCC(C)CCCCC(C)(C)CCC(C)CCC(C)CCCC(C)C)C(=O)O)O[C@H](C(N)=O)[C@@](C)(O)[C@@H]2OC(N)=O)O[C@H](CO)[C@@H](O)[C@@H]1O (stereo partly shown) [Disaccharide-degradation product]
TG
  TG inhibition: 45%
S.aureus SG511
  MIC: > 50 µg/mL

## CCCCCCCCCCCCO[C@H](COP(=O)(O)O[C@H]1O[C@H](C(N)=O)[C@@H](O)[C@H](NC(=O)Nc2ccc(OC(F)(F)F)cc2)[C@H]1O[C@@H]1O[C@H](CO)[C@H](O)[C@H](O)[C@H]1NC(=O)c1cccc(C(F)(F)F)c1)C(=O)O [TS30153]
staphylococci
  MIC: 3.12 µg/mL (≈ 2.93 µM)
enterococci
  MIC: 12.5 µg/mL (≈ 11.7 µM)
MR S. aureus, VRE
  MIC: 3.1 – 12.5 μg ml^–1
[7]
  In vivo activity: no in vivo activity

## NC(CC(=O)NC1C(CO)OCC(NC(=O)Nc2ccc(Cl)c(Cl)c2)C1OC1OC(CO)C(O)C(O)C1NC(=O)Nc1ccc(OC(F)(F)F)cc1)c1ccc(-c2ccccc2)cc1 (stereo not shown) [ACL19378]
Gram-positive bacteria; 50% serum
  Activity in the presence of serum: limited activity
Gram-positive bacteria; Gram-positive bacteria
  MIC: ~2 µg/mL
S. aureus
  MIC: 2 µg/mL

## O=C(Nc1ccc(Cl)c(C(F)(F)F)c1)NC1COC(CO)C(n2c(NCc3ccccc3)nc3cc(C(F)(F)F)ccc32)C1O (stereo not shown) [ACL20215]
S. aureus Newbould 305
  MIC: 2 µg/mL (≈ 3.04 µM)
Human red blood cells
  HC50: 74 µg/mL
[8]
  Metabolic stability (in vitro): No degradation
[9]
  Metabolic stability (degradation of the compound): no degradation
[10]
  % Dose in urine: < LLQ
In vivo [11]
  Vd: 97.2 L/kg
  half-life: 27.2 h
In vivo [11]; Blood Cltotal
  clearance: 48.9 mL/min/kg
In vivo [11]; Plasma Cltotal
  clearance: 42.1 mL/min/kg
In vivo [12]
  MTD at 72 h: 100 mg/kg
S. aureus (Smith); i.p., 50 mg kg^−1, 10 min after inoculation
  Survival 7 days: 100%
S. aureus (Smith); i.v., 4 mg kg^−1, 10 min after inoculation
  Survival 7 days: 10%
[13]
  Good tolerance up to (dose): 60 mg/kg
  No mortality up to (dose): 100 mg/kg
[13]; 100 mg kg^−1
  Central/autonomic responses: some minor changes to central/autonomic responses
[1]
  MIC: 4 µg/mL (≈ 6.08 µM)
[2]
  MIC: 4 µg/mL (≈ 6.08 µM)
S. aureus NRS 17—GISA
  MIC: 8 µg/mL (≈ 12.2 µM)
S. aureus NRS 1—GISA
  MIC: 4 µg/mL (≈ 6.08 µM)
S. aureus VRS 1
  MIC: 4 µg/mL (≈ 6.08 µM)
[3]
  MIC: 4 µg/mL (≈ 6.08 µM)
E. faecium ATCC 35667
  MIC: 16 µg/mL (≈ 24.3 µM)
[4]
  MIC: 8 µg/mL (≈ 12.2 µM)
E. faecalis ATCC 29212
  MIC: 4 µg/mL (≈ 6.08 µM)
E. faecalis VanA, ci
  MIC: 8 µg/mL (≈ 12.2 µM)
[5]
  MIC: 4 µg/mL (≈ 6.08 µM)
E. coli ATCC 25922
  MIC: > 64 µg/mL
[14]; 200 μg gland-1
  Glands Cleared: 0%
[14]; 200 μg gland-1, 14 h post treatment
  CFU/g gland: 8.36 ± 1.05 log10
[14]; 400 μg gland-1
  Glands Cleared: 0%
[14]; 400 μg gland-1, 14 h post treatment
  CFU/g gland: 7.77 ± 0.52 log10
[14]; 800 μg gland-1
  Glands Cleared: 0%
[14]; 800 μg gland-1, 14 h post treatment
  CFU/g gland: 6.60 ± 1.42 log10
[14]; 1000 μg gland-1
  Glands Cleared: 0%
[14]; 1000 μg gland-1, 14 h post treatment
  CFU/g gland: 5.72 ± 0.63 log10
[14]; mouse mastitis, intramammary
  PD50 (50% protective dose): >1,000 μg per gland
  PD100 (100% protective dose): >1,000 μg per gland
[14]; [16]
  ED2logc.f.u. (effective dose to reduce bacterial load by 2 × log(c.f.u.)): 730 μg per gland
  ED4logc.f.u. (effective dose to reduce bacterial load by 4 × log(c.f.u.)): 1,400 μg per gland
S.aureus MSSA
  MIC: 4 µg/mL (≈ 6.08 µM)
S.aureus MRSA
  MIC: 2 µg/mL (≈ 3.04 µM)
E. faecium
  MIC: 16 µg/mL (≈ 24.3 µM)
E. faecium VanB
  MIC: 16 µg/mL (≈ 24.3 µM)
E. faecalis
  MIC: 4 µg/mL (≈ 6.08 µM)
E.coli
  MIC: > 64 µg/mL
PBP1 from C. difficile
  Inhibitory effect on GT (single concentration): some inhibition; also recorded: only moderate effect
MGT from S. aureus
  Inhibitory effect on GT (single concentration): some inhibitory effect
[15]
  blood plasma ratio: 0.86
[6]; 10 μg ml-1, 3 h
  Accumulation of lipid II: -3.4 ± 12.7%
  Inhibit of PG: 0.5 ± 6.7%
[6]; 30 μg ml-1, 3 h
  Accumulation of lipid II: 17.7 ± 7.1%
  Inhibit of PG: 7.9 ± 0.9%
[6]; 100 μg ml-1, 3 h
  Accumulation of lipid II: 34.9 ± 0.6%
  Inhibit of PG: 17.0 ± 1.0%
[6]; 200 μg ml-1, 3 h
  Accumulation of lipid II: 47.1 ± 2.8%
[6]; concentration not given
  Accumulation of lipid II (in words): accumulation of lipid II, although to a lesser extent
S. aureus MGT
  IC50: 25.8 µM and 26 µM
